Data on two molecules can be found in patent publication US12337004B2, “Coumarin-modified androgens for the treatment of prostate cancer” (Health Research, Inc., priority 2019, dated 2025).

Entries after “also recorded” stand apart in the source; their conditions may differ. Where a name gives a salt, the structure may show the parent alone.

Test [1] relates to VCaP cells. In words: MTT cell growth, VCaP. Format: cell-based. The method, then: (§1) Identification of a 3α-oxidoreductase inhibitors: Various non-steroidal compounds were tested for anti-neoplastic activity by screening against PC-3 CaP cells. Coumarin-labeled androgens were developed to track changes in androgen metabolism pathways in response to castration or androgen metabolism inhibition using in vitro and in vivo CaP cell models.
(§2) VCaP, CWR-R1 and PC-3 cells were treated for six days with complete culture media (CM), serum-free culture media (SFM), bicalutamide (Bic) at 10 μM, the coumarin C at 20 μM, DHT at 10 nM, DHT-17C at 20 nM and DHT-3C at 20 nM (FIG. 20). […] MTT analysis was performed to compare cell growth impairment of VCaP cells treated with DHT-17C versus enzalutamide. Cells were treated with DHT-17C at 1 nM, 12 nM, 20 nM, 50 nM or 100 nM concentrations, or enzalutamide at 1 μM, 12 μM, 20 μM, 50 μM or 100 μM concentrations. […] MTT performed using ezanlutamide (20 uM) or DHT-17C (50 nM) treated mutant AR and AR-V7 positive CWR-R1 cells supported VCaP MTT data (FIG. 22).

Test [2] has as its target T1, AR-GFP (Homo sapiens, UniProt P10275).
T1 construct: expressed in transfected cells; host or cells: VCaP, PC-3 (also LAPC-4, CWR-R1, 22Rv1, DU145)
T1 sequence (P10275 1-920): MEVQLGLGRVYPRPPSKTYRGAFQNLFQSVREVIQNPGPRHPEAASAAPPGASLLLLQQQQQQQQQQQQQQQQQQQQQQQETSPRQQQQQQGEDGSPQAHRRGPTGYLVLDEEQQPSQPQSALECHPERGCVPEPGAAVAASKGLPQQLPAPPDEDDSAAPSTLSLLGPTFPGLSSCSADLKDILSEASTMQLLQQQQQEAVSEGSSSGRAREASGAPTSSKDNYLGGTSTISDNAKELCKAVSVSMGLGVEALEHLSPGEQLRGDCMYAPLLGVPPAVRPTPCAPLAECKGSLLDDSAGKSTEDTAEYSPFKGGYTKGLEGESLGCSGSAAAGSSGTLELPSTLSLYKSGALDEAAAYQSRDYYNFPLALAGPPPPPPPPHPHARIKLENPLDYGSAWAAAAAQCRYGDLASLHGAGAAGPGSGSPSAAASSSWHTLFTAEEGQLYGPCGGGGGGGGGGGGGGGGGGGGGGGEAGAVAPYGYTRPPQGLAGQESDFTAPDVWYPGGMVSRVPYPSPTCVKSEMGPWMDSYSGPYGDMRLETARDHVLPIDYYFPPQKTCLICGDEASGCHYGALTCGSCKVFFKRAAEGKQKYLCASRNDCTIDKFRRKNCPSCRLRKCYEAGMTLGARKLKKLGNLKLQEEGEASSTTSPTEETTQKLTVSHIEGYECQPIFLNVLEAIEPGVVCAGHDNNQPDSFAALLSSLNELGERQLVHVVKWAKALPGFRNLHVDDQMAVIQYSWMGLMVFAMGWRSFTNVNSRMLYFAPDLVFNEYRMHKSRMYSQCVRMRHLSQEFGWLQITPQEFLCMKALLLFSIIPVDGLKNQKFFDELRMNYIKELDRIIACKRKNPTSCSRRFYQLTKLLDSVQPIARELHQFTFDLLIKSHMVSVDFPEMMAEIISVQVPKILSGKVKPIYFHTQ
In words: ImageStream nuclear co-localization with AR-GFP. It counts as cell-based. The text has this: Androgen-sensitive AR-positive LAPC-4 and VCaP, castration-recurrent and AR-positive CWR-R1 and CWR-22rv1 (22rv1), and AR-negative PC-3 and DU145 cells were transfected with either an empty pCMV expression plasmid (control) or a pCMV plasmid that encoded a wild-type AR tagged with a C-terminal green fluorescent protein (GFP; AR-GFP). AR-positive CaP cell lines were transfected with AR-GFP to assess if DHT-17C or DHT-3C co-localized with AR and translocated to the nucleus.
AR positive CaP cell lines were treated for 16 hours with androgen-free, serum-free complete media (SFM) alone, or SFM that contained 20 nM or 50 nM fluorescent-androgens or C alone. The time points were chosen to measure differences in uptake of the fluorescent-androgens and nuclear or cytosolic localization of the fluorescent-androgens and/or AR-GFP.
Serum-free complete media (SFM)^2 was used to androgen deprive cells.

The test system of test [3] is CWR-R1 cells. In words: MTT cell growth, CWR-R1. It counts as cell-based, human. The note with it: six days; DHT-17C at 20 nM, DHT-3C at 20 nM. How it is done: as §1, §2
For test [4], the system named is AR- or AR-GFP negative PC-3 cells. In words: ImageStream nuclear localization in AR-negative PC-3 cells. It counts as cell-based. The note with it: PC-3 cells without AR or AR-GFP (empty plasmid); hydrochloride. How it is done: (§3) ImageStream studies were repeated using VCaP and PC-3 cells that stably expressed AR-V2 (splice-variant that lacked the N-terminus) with C-terminal GFP (AR-V2-GFP). […] ImageStream data was confirmed using immunoprecipation (IP) studies performed with a DHT-targeted antibody.
(§4) Serum-free complete media (SFM)^2 was used to androgen deprive cells. PC-3 cells that contained empty plasmid were treated with SFM alone, SFM with C or SFM with DHT-3C.

Test [5] relates to LNCaP cells. Put plainly: MTT cell growth, LNCaP. Format: cell-based. The note with it: six days; data not shown.
Test [6] deals with KLK2. Put plainly: qRT-PCR of AR-regulated gene KLK2. The note with it: 24 hours; VCaP, LAPC-4, LNCaP, CWR-R1 and 22rv1 cells. Format: cell-based. On the technique in general: Real-time PCR tracks product formation cycle by cycle.
Test [7] deals with KLK2. Put plainly: Western blot of AR-regulated protein expression. To be noted: CaP cell lines. Format: cell-based. In general terms: Immunoblotting shows a protein as a band on a membrane.
Test [8] deals with T2, AR-V2-GFP (Homo sapiens, UniProt P10275).
T2 construct: stably expressed AR170 LBD only with splice variant V2 (AR-V2-GFP); expressed in transfected cells; host or cells: VCaP, PC-3
T2 sequence (P10275 1-388 isoform P10275-2): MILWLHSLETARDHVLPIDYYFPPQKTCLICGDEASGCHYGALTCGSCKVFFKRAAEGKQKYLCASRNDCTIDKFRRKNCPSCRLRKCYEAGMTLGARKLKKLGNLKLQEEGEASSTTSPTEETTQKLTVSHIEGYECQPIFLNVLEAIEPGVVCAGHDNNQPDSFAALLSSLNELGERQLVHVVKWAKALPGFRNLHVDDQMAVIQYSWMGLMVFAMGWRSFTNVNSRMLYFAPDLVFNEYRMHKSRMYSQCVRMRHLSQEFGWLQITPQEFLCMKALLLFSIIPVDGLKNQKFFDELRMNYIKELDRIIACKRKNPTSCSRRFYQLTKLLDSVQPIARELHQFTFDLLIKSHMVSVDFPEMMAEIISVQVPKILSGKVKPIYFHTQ
In words: ImageStream co-localization with AR-V2-GFP. It counts as cell-based. To be noted: VCaP and PC-3 cells that stably expressed AR-V2-GFP; hydrochloride. The method, then: as §3, §4

Test [9] concerns CaP cell lines. In words: MTT CaP cell growth during androgen deprivation, cell line panel. To be noted: SFM with DHT-3C, six days. Format: cell-based. The text has this: MTT analysis was used to assess if treatment with DHT-3C facilitated CaP cell growth during androgen deprivation. […] SFM with DHT-3C stimulated growth in 3 of 5 cell lines (FIG. 25).
Test [10] concerns LAPC-4 cells. Put plainly: MTT cell growth, LAPC-4. It counts as cell-based. The note with it: six days; data not shown.
Test [11] concerns CRPC. To be noted: cited from earlier work.

For the molecule `C[C@]12CC[C@]3(C[C@@H]1CC[C@@H]1[C@@H]2CC[C@]2(C)[C@@H](O)CC[C@@H]12)NCCc1c3c(=O)oc2c3c4c(cc12)CCCN4CCC3` [DHT-3C, (3R,5S,10S,13S,17S)-17-hydroxy-10,13-dimethyl-1,2,2′,3′,4,5,6,7,8,8′,9,9′,10,11,12,12′,13,13′,14,15,16,17-docosahydro-7′H,11′H-spiro[cyclopenta[a]phenanthrene-3,4′-pyrido[3,2,1-ij]pyrido[4′,3′:4,5]pyrano[2,3-j]quinolin]-5′(1′H)-one hydrochloride], the “VCaP cell growth (MTT)” value in test [1] (six days, DHT-17C at 20 nM, DHT-3C at 20 nM) was “promoted VCaP, LAPC-4, and LNCaP cell growth”. For the same molecule, the “nuclear co-localization with AR-GFP” value in test [2] (PC-3-AR-GFP cells, SFM) is “showed nuclear co-localization between DHT-3C and AR-GFP”; in test [2] (VCaP that stably expressed AR-GFP) it was “demonstrated co-localization between DHT-3C and AR-GFP”. Further, in test [2] (VCaP-AR-GFP and PC-3-AR-GFP cells), the “nuclear co-localization with AR-GFP and DRAQ5” value is “co-localized with AR-GFP”. The “CWR-R1 cell growth (MTT)” value in test [3] was “promoted”. In addition, the “nuclear localization in AR-negative cells” value in test [4] is reported as “did not produce nuclear fluorescence”. Moreover, in test [5], the “LNCaP cell growth (MTT)” value was “promoted VCaP, LAPC-4, and LNCaP cell growth”. Also, the KLK2 transcript induction result in [6] was “produced similar inductions of expression”. The “AR-regulated protein expression levels” value in test [7] is listed as “produced similar AR-regulated protein expression levels”. The “co-localization with AR-V2-GFP” value in [8] was “co-localized with DRAQ5 and AR-V2-GFP; also recorded: co-localized with the AR LBD”. Besides, in test [9], the “cell lines with stimulated growth” value is 3 of 5. Further, in test [10], the “LAPC-4 cell growth (MTT)” value is “promoted VCaP, LAPC-4, and LNCaP cell growth”.

With `CNC(=O)c1ccc(N2C(=S)N(c3ccc(C#N)c(C(F)(F)F)c3)C(=O)C2(C)C)cc1F` [enzalutamide, reference compound], the “VCaP cell growth impairment versus DHT-17C” value in [1] (enzalutamide at 1, 12, 20, 50 or 100 μM) is “impaired VCaP cell growth to similar extents”. Further, the extension of survival in test [11] was 4.8 months.
